Data on twelve molecules can be found in US8114900B2, “Amorphous carvedilol dihydrogen phosphate” (Teva Pharmaceutical Industries Ltd., priority 2006, dated 2012).

Like-named read-outs stand apart in the source and are kept apart here.

The conditions of data set [1]: cited from earlier work.
Data set [2] in a line: Solubility of solid forms at pH=7 and 25° C. Format: physicochemical. How it is done: The amorphous form (1:1) of the present invention has higher solubility with compared to Form I at pH=7 and 25° C.: […]
Data set [3] in a line: Particle size dimensions from microscope images. Format: physicochemical. From the text: It has the advantage of being able to reduce the particle size to a range of smaller dimensions (according to the requirements of the formulator who prepare the capsule or tablet), while when starting in advance with a smaller size of powder (Form I) limits this option. In addition, small particles, reduce flowability.

Data set [4] in a line: % crystallinity calculation using the WinXRD 2.0 program. Format: physicochemical. The following applies: from XRD. From the text:
2.0 program (FIGS. 46, 48, 39, 40, 43, 53, 50, 41).

Data set [5] can be described thus: Stability upon heating under extreme heat conditions (oven). Format: physicochemical. The following applies: 80° C. for 30 min in oven.

With `COc1ccccc1OCCNCC(O)COc1cccc2[nH]c3ccccc3c12` (racemic) [carvedilol, (±)-1-(Carbazol-4-yloxy)-3-[[2-(o-methoxyphenoxy)ethyl]amino]-2-propanol], the solubility in data set [1] (in alkaline media) is below 1 µg/mL; in data set [1] (increases with decreasing pH, upper value), “up to 100 μg/mL”. For `COc1ccccc1OCCNCC(O)COc1cccc2[nH]c3ccccc3c12.O=P(O)(O)O` (centres unmarked) [Amorphous, carvedilol dihydrogen phosphate], in data set [2], the “solubility” value amounted to 14.9 µg/mL. As to `COc1ccccc1OCCNCC(O)COc1cccc2[nH]c3ccccc3c12.O=P(O)(O)O` (centres unmarked) [Form F1, carvedilol dihydrogen phosphate], the particle size dimensions in data set [3] (listed as F1) is 50-150 μm. In data set [4] (listed as F1), the “% crystallinity” value is on record as “about 86%”. Further, the “stability upon heating (solid form)” value in data set [5] (listed as F1) is listed as “stable upon heating”. In the case of `COc1ccccc1OCCNCC(O)COc1cccc2[nH]c3ccccc3c12.O=P(O)(O)O` (centres unmarked) [Form F, carvedilol dihydrogen phosphate], the particle size dimensions in data set [3] (listed as F) was 50-200 μm. For the same molecule, the “% crystallinity” value in data set [4] (listed as F) is given as “about 87%”. Moreover, the “stability upon heating (solid form)” value in data set [5] (listed as F) is on record as “stable upon heating”. For the molecule `COc1ccccc1OCCNCC(O)COc1cccc2[nH]c3ccccc3c12.O=P(O)(O)O` (centres unmarked) [Form I, carvedilol dihydrogen phosphate], the particle size dimensions entry in data set [3] (listed as I) is “less than 20 μm”. The “% crystallinity” value in data set [4] (listed as I) was “about 68%”. Moreover, the “solubility” value in data set [2] (listed as I (′027)) was found to be 9.6 µg/mL. For the molecule `COc1ccccc1OCCNCC(O)COc1cccc2[nH]c3ccccc3c12.O=P(O)(O)O` (centres unmarked) [Form IV, reference compound], the “stability upon heating (solid form)” value in data set [5] was “transforms to amorphous form”. Regarding `COc1ccccc1OCCNCC(O)COc1cccc2[nH]c3ccccc3c12.O=P(O)(O)O` (centres unmarked) [Form L1, carvedilol dihydrogen phosphate], the “% crystallinity” value in data set [4] (listed as L1) is “about 85%”. The “stability upon heating (solid form)” value in data set [5] (listed as L1) is “stable upon heating”. For the molecule `COc1ccccc1OCCNCC(O)COc1cccc2[nH]c3ccccc3c12.O=P(O)(O)O` (centres unmarked) [Form L, carvedilol dihydrogen phosphate], in data set [4] (listed as L), the “% crystallinity” value is “about 88%”. In addition, the “stability upon heating (solid form)” value in data set [5] (listed as L) is listed as “stable upon heating”. On to `COc1ccccc1OCCNCC(O)COc1cccc2[nH]c3ccccc3c12.O=P(O)(O)O` (centres unmarked) [Form N, carvedilol dihydrogen phosphate], for which the particle size dimensions in data set [3] (listed as N) is 200-400 μm. The “% crystallinity” value in data set [4] (listed as N) is listed as “about 86%”.

Regarding `COc1ccccc1OCCNCC(O)COc1cccc2[nH]c3ccccc3c12.O=P(O)(O)O` (centres unmarked) [Form P, carvedilol dihydrogen phosphate], the “% crystallinity” value in data set [4] (listed as P) is “about 85%”. Take `COc1ccccc1OCCNCC(O)COc1cccc2[nH]c3ccccc3c12.O=P(O)(O)O` (centres unmarked) [Form R, carvedilol dihydrogen phosphate]: in data set [4] (listed as R), the “% crystallinity” value is recorded as “about 86%”. The “stability upon heating (solid form)” value in data set [5] (listed as R) is listed as “stable upon heating”. `COc1ccccc1OCCNCC(O)COc1cccc2[nH]c3ccccc3c12.O=P(O)(O)O` (centres unmarked) [Form Y, carvedilol dihydrogen phosphate]: in data set [3] (listed as Y), the particle size dimensions was 20-100 μm.

As a reminder, the solubility is the dissolved amount per volume that the medium holds.
